The NIST ThermoML archive (doi:10.1021/je1012229)

Settings: 101.33 kPa, Liquid, Vibrating tube method

CCCCn1cc[n+](C)c1.F[P-](F)(F)(F)(F)F [1-butyl-3-methylimidazolium hexafluorophosphate]
Settings	mass density [kg/m3]
283.15 K	1380.2
293.15 K	1372
303.15 K	1362.6
313.15 K	1354.1
323.15 K	1345.7
333.15 K	1339.1
343.15 K	1331.7
353.15 K	1323.4
363.15 K	1314.2
